{"source": "patent US20210106703A1", "about": "“RADIOIMMUNOCONJUGATES IN COMBINATION WITH OTHER DRUGS AS TREATMENT AGAINST NHL” (Nordic Nanovector ASA, priority 2017, published 2021)", "molecules": {"B1": {"name": "Lutetium-177 [^177Lu]-lilotomab satetraxetan (conjugate, chains of the INN, looked up)", "VH": "EIQLQQSGPELVKPGASVKVSCKASGYSFTDYNMYWVKQSHGKSLEWIGYIDPYNGDTTYNQKFKGKATLTVDKSSSTAFIHLNSLTSEDSAVYYCARSPYGHYAMDYWGQGTSVTVSS", "VL": "DIVMTQSHKLLSTSVGDRVSITCKASQDVSTAVDWYQQKPGQSPKLLINWASTRHTGVPDRFTGSGSGTDYTLTISSMQAEDLALYYCRQHYSTPFTFGSGTKLEIK", "modifications": "177Lu satetraxetan chelator conjugate"}}, "assay_type_in_all_cases": "cell-based, human", "key": {"RIVA cells": {"test_system": "RIVA cells", "experiment": "Real Time Glo viability screen, Betalutin with PARP or cell cycle kinase inhibitors (Examples 4, 7)", "settings": "RIVA", "description": "(§1) DLBCL cell lines U2932 and RIVA were maintained in RPMI 1640-GlutaMAX medium (Gibco) supplemented with 15% fetal bovine serum (Biowest) and 1% penicillin-streptomycin (Gibco) at 37° C. in a humidified atmosphere containing 5% CO2. Cells were split twice a week 1:7 and diluted 2-4 days before start of the experiment, to ensure they are in exponential growth at the beginning of the experiment.\n(§2) Cells were treated in 6-well plates without shaking for 18 h with Betalutin at a final concentration of 1 μg/ml for U2932 and 0.5 μg/ml for RIVA. After treatment, PBS was added to the cells, and the cells pelleted. Cells were first resuspended in 1 ml PBS, then washed twice in PBS and finally diluted in growth medium to a final concentration of 2.5*10^6 cells/ml.\n(§3) Cells density measurements were performed the day before seeding. Based on these measurements cells were seeded in 384-well plates at a density of 3000 cells per well in a culturing volume of 25 μl (resulting in start titers: 120 000 cells/ml) using a robot. For measuring viability using Real Time Glo (Promega, WI, USA), the Cell Viability Substrate and NanoLuc® Enzyme were diluted 1:500 in growth medium, and 25 μL of diluted reagents dispensed in each well by a robot. All reagents were equilibrated to 37° C. Cells were incubated with the reaction mix for 1 h at 37° C. before the first measurement of luminescence. Measurements were repeated as often as required within 72 h after adding the reagents. A Tecan SPARK 10M plate reader (Tecan, SUI) was used to measure luminescence, with the integration time set to 1 sec.\n(§4) The screen was performed in 384-well plate with selected PARP inhibitors (stock solutions 10 mM in DMSO) acquired from SelleckChem (Selleckchem, TX, USA). To include no-drug controls, the drug panel (Table 6) was divided on two plates. Due to previous observations of cells growing poorly in wells located at the edges of the plates, the two outer most rows and columns were not used. As previously mentioned three different drug concentrations were used in the screen, 10 nM and 1 μM for U2932 and 10 and 100 nM for RIVA.\n(§5) Candidate hits were identified using the Bliss Independence test for synergy. The effect of each drug alone at each concentration was calculated as the fraction of dead cells as compared to control cells Fa=(1−(RLUdrug/avgRLUcontrol), a similar calculation was performed for the effect of Betalutin alone Fb=(1−(avgRLUBetalutin/avgRLUcontrol). Through the following equation we found the expected additive effect of the combination of drug+Betalutin: Expected effect (E)Fab=(Fa+Fb−Fa*Fb). We subtracted this expected effect from the measured effect (M)Fab=(1−(RLUDrug+Betalutin/avgRLUcontrol) to get a value (Diff)Fab representing how the measured effect differed from the expected additive effect of the combination. This value was normalized to the survival fraction of drug alone: (Diff)Fab#=(Diff)Fab/(1−Fa). Furthermore, to get a measure of how big the well-to-well variation was, we calculated the standard deviation for the effect of Betalutin alone in the 48 control wells on each plate: (STDEV)Fb=(RLUBetalutin/RLUcontrol)−(averageRLUBetalutin/averageRLUcontrol). Drugs with a value (Diff)Fab#two times higher than the standard deviation of Betalutin treated controls, (STDEV)Fb, were scored as hits.\nas §3, with “Measurements were repeated as often as required within 72 h after adding the reagents. A Tecan SPARK 10M plate reader (Tecan, SUI) was used to measure luminescence, with the integration time set to 1 sec.” left out"}, "U-2932 cells": {"test_system": "U-2932 cells", "experiment": "Real Time Glo viability screen and validation, Betalutin with PARP or cell cycle kinase inhibitors (Examples 4, 7)", "description": "as §1, §2, §3, §4, §5\nas §3, with “Measurements were repeated as often as required within 72 h after adding the reagents. A Tecan SPARK 10M plate reader (Tecan, SUI) was used to measure luminescence, with the integration time set to 1 sec.” left out"}, "DOHH2 cells": {"test_system": "DOHH2 cells", "experiment": "Alamar Blue cytotoxicity study", "settings": "Homo sapiens, DOHH-2; DOHH2, 72 h incubation after seeding; read-out: IC50", "description": "(§6) Cells were treated with either Humalutin, olaparib or a combination of both and seeded into 96 well-plates. At each time point after treatment, cells were incubated with Alamar Blue (Thermo Fisher, DALL1100) for 4 hours and fluorescence measurements were performed using a multiplate reader Fluoroskan ascent FL to assess cell proliferation and viability. All experiments were done in duplicates using 2 samples in each experiment. Data were normalized to the untreated controls.\n(§7) Cells were incubated with 0.25, 0.5, 1, 2.5 or 5 μg/ml of Humalutin in cell culture flasks and incubated at 37° C./5% CO2. After 18-20 hours cells were washed and resuspended in fresh medium. Cell bound activity after washing was measured using a calibrated gamma detector (Cobra II auto-gamma detector, Packard Instrument Company, Meriden, Conn., USA). Cell concentration and viability was also measured after washing using Guava ViaCount Cell Dispersal Reagent for Flow Cytometry (Merck GaA, Darmstadt, Germany) and measured in a Guava EasyCyte 12HT (Merck KGaA, Darmstadt, Germany) to determine how well the cells survived the incubation. Cells were seeded in 96 well plates.\n(§8) Cells were seeded in 96 well plates pre-coated with from 1 to 100 μM olaparib in 0.2 ml medium and incubated at 37° C./5% CO2 for 72 hours before the cytotoxic effect was measured using alamar blue cell viability assay.\n(§9) Cells were incubated with either 0, 0.5 μg/ml or 1 μg/ml Humalutin and the same procedure as described before for treatment with humalutin alone and olaparib alone was followed. Concentrations of olaparib used were between 1 and 100 μM.\n(§10) The Chou-Talalay model was used for synergy calculations using the Compusyn software. R (goodness of fit) was calculated for the individual treatments and should be over 0.90 in in vitro culture experiments in order to use the calculated combination index (CI). The CI is an indication of synergy: 0-0.9 is considered synergy. Synergysm grading was used as described in WO2006004917A2. […]\nas §7, with “viability were” for “viability was”, “plates. Alamar blue viability measurements were performed 120 h after seeding.” for “plates.”"}, "Granta 519 cells": {"test_system": "Granta 519 cells", "experiment": "Alamar Blue cytotoxicity study", "settings": "Homo sapiens; Granta 519, 72 h incubation after seeding; read-out: IC50", "description": "as §6, §7, §8, §9, §10\nas §7, with “viability were” for “viability was”, “plates. Alamar blue viability measurements were performed 120 h after seeding.” for “plates.”"}}, "data": [{"molecule": "Nc1nc(Nc2ccc(S(N)(=O)=O)cc2)nn1C(=O)c1c(F)cccc1F", "note": "[JNJ-7706621]", "values": [{"measurement": "Growth inhibitory effect, drug alone", "setting": "RIVA cells; drug 100 nM", "result": "no growth inhibitory effect"}, {"measurement": "inhibition at 1 µM", "setting": "U-2932 cells; Homo sapiens, U2932, 120 h, U-2932, drug 1 μM, five days into treatment, read-out: Growth inhibition, drug alone", "result": "~40", "unit": "%"}, {"measurement": "inhibition at 0.64 µM", "setting": "U-2932 cells; Homo sapiens, U2932, U-2932, drug 640 nM, read-out: Growth inhibition, drug with Betalutin pre-treatment", "result": "~80", "unit": "%"}, {"measurement": "Growth inhibitory effect, drug alone", "setting": "U-2932 cells; U-2932, drug 10 nM", "result": "no growth inhibitory effect"}, {"measurement": "Combined growth inhibition with Betalutin pre-treatment", "setting": "U-2932 cells; U-2932, drug 1 μM + Betalutin", "result": "more than 60%"}, {"measurement": "Synergy by combination index", "setting": "U-2932 cells; U-2932, drug 80-1280 nM with 0.5, 1 or 2 μg/ml Betalutin, day 5", "result": "Synergy was found for all tested combinations"}, {"measurement": "Synergy by combination index, confirmation experiments", "setting": "U-2932 cells; U-2932, drug 100-5000 nM with Betalutin 0.5-5 μg/ml, day 5", "result": "observed for all but two combinations"}, {"measurement": "Growth impairment, drug alone", "setting": "U-2932 cells; U-2932, highest tested dose 1280 nM", "result": 30, "unit": "%"}, {"measurement": "BLISS analysis, combination with Betalutin versus expected additive effect", "setting": "U-2932 cells; U-2932, significant = more than twice the SD of Betalutin alone", "result": "significantly greater than the expected additive effect"}]}, {"molecule": "CC1(C)CCC(CN2CCN(c3ccc(C(=O)NS(=O)(=O)c4ccc(NCC5CCOCC5)c([N+](=O)[O-])c4)c(Oc4cnc5[nH]ccc5c4)c3)CC2)=C(c2ccc(Cl)cc2)C1", "note": "[venetoclax]", "values": [{"measurement": "IC50", "setting": "DOHH2 cells", "result": 2980, "unit": "nM"}, {"measurement": "IC50", "setting": "Granta 519 cells", "result": 331, "unit": "nM"}]}, {"molecule": "B1", "values": [{"measurement": "Proliferation relative to non-treated cells", "setting": "RIVA cells; 0.5 μg/ml [600 MBq/mg], days 4-6", "result": "more than 40%"}, {"measurement": "Inhibition of proliferation capacity, single treatment", "setting": "RIVA cells; Betalutin 0.5 μg/ml, days 5 and 6", "result": "about 50%"}, {"measurement": "Proliferation relative to non-treated cells", "setting": "U-2932 cells; U-2932, 1 μg/ml [600 MBq/mg]", "result": "more than 80%"}, {"measurement": "Inhibition of proliferation capacity, single treatment", "setting": "U-2932 cells; U-2932, Betalutin 1 μg/ml, days 5 and 6", "result": "less than 10%"}, {"measurement": "Proliferation potential compared to untreated cells", "setting": "U-2932 cells; U-2932, validation screen, highest Betalutin dose (2 μg/ml)", "result": "about 70%"}]}]}
